The record followed here is patent publication US20080206287A1, “Use of cyclosporin A to sensitize resistant cancer cells to death receptor ligands” (priority 2006, published 2008).

Structures are written as SMILES. “Also recorded” adds a separate entry of the source.

Common to all, as to type: cell-based
One assay has as its system PPC-1 cells. Briefly: PPC-1 cell viability (MTT) with or without CH-11 anti-FAS antibody. As to conditions: for direct toxicity: compound alone, concentrations up to 80 μM. Here is the method: High throughput screening. Screens were performed using a fully integrated, programmable robotic liquid handling system (Biomek® FX, Beckman-Coulter Inc., Fullerton, Calif.), with integrated plate reader (LJL analyst HT 96-384, Sunnyvale, Calif.) and environmentally controlled plate carousel set at 37° C. and 5% CO2:95% air. PPC-1 cells (1×10^4) were seeded overnight into 96 well, flat-bottom plates (Costar, Cambridge, Mass.) in 100 μL of medium containing 2.5% FCS. The next day, aliquots from the 50,000 compound Diversa library were added at a final concentration of 7.5 μg/mL (about 25 μM) in a final concentration of 0.5% (v:v) dimethylsulfoxide (DMSO). CH-11 antibody (100 ng/mL) was then added, and the cells were incubated for 24 hours before assessing cell viability by a 3-(4,5-Dimethylthiazol-2-yl)-2,5-diphenyltetrazolium Bromide (MTT) dye reduction assay (Sigma).
Cell death assays. Cell viability was measured by MTT and MTS assays, essentially as described in Schimmer et al. (Cancer Cell 5:25-35, 2004). Absorbance readings were plotted against a standard curve to derive the corresponding cell number, and cell viability was expressed as a percentage relative to untreated cells. Apoptosis was measured by flow cytometric analysis of Annexin V surface expression after staining cells with FITC-anti-Annexin V and propidium iodide (PI) (Biovision, Mountain View, Calif.), as described in Pedersen et al. (Blood 100:2965-72, 2002).
Statistics. Cytotoxicity induced by compounds used in combination with conventional agents (e.g., CH-11, TRAIL, VP-16 and staurosporine) was evaluated for evidence of synergy toxicity by comparing the slopes of the dose-response curves. If the combination of the potential sensitizing compound with the conventional agent increased the slope of the dose-response curve compared to the slopes of either the sensitizer or the conventional agent alone, then the interaction was considered synergistic. […] Statistical significance was defined as a p<0.01, using two-sided tests. Synergy was confirmed by performing multiple drug dose-effect calculations using the Median Effect methods as described in Chou (“The Median-Effect Principle and the Combination Index for Quantitation of Synergism and Antagonism.” In: D. C. Rideout and T. C. Chou (eds.), Synergism and Antagonism in Chemotherapy, pp. 61-102: Academic Press, Inc., 1991).
Identification of small molecule FAS sensitizers. Resistance to death receptor ligands may permit malignant cells to escape immune surveillance and limit the clinical efficacy of recombinant death receptor ligands such as TRAIL. To identify small molecules that restore sensitivity to death receptor ligands, a cell-based high throughput screen was performed using the FAS and TRAIL-resistant prostate cancer cell line PPC-1 and a commercially available 50,000 compound library. The screens were performed in 96 well plates, to which compounds were added at 7.5 μg/ml (about 25 μM), followed by agonistic anti-FAS monoclonal antibody CH-11 (100 ng/mL). Cell viability was measured 24 hours later by MTT assay. […] The coefficient of variation (CV) for PPC-1 cells treated with CH-11 alone was determined to be 5%, based on 90 replicate determinations. A 50% decrease in cell viability was used as a cut-off for scoring hits.
From the primary screen of 50,000 compounds, 313 reproducible hits were obtained. To determine whether any of the 313 compounds were toxic molecules as opposed to FAS-sensitizers, the 313 compounds were evaluated in secondary screens where PPC-1 cells were treated with increasing concentrations of the compounds in the presence or absence of CH-11 antibody. Through these secondary screens, nine sensitizers were identified that increased CH-11-mediated killing above the cell death produced by treatment of the cells with the compound alone (Table 1). […]

Assay [1] relates to OVCAR-3 and T47D tumor lines. The assay can be described thus: Extrinsic versus intrinsic pathway stimuli in further tumor lines.
The test system of another assay is FAS or TRAIL receptors. The assay can be described thus: Surface expression of death receptors by flow cytometry. The following applies: PPC-1 cells. The text has this: Furthermore, since these compounds sensitize to both FAS and TRAIL, they presumably act distal to death receptors.
For orientation: A flow cytometer gives signals particle by particle.

The subject of a further assay is FLIP mRNA. Briefly: FLIP mRNA quantitative RT-PCR. As to conditions: responding and non-responding cell lines. As to the method:
Quantitative RT-PCR. The cDNAs encoding the long isoform of FLIPL and GAPDH were amplified using the following primer pairs: 5′-[…]-3′ (forward primer for FLIP; SEQ ID NO:1), 5′-[…]-3′ (reverse primer for FLIP; SEQ ID NO:2), 5′-GAAGGTGAAGGTCGGAGTC-3′ (forward primer for GAPDH; SEQ ID NO:3), and 5′-[…]-3′ (reverse primer for GAPDH; SEQ ID NO:4). Equal amounts of cDNA for each sample were added to a prepared master mix (SYBR Green PCR Master mix, Applied Biosystems, Foster City, Calif.). Real-time quantitative PCR reactions were performed on an ABI Prism 7700 sequence detection system (Applied Biosystems, Foster City, Calif., USA). The relative abundance of a transcript was represented by the threshold cycle of amplification (CT), which is inversely correlated to the amount of target RNA/first strand cDNA being amplified. To normalize for equal amounts of the latter, the transcript levels of the putative housekeeping gene GAPDH were assayed. The comparative CT method was calculated as per manufacturer's instructions. To normalize the CT of FLIP for each sample, the following ratio was calculated: CT(FLIP)/CT(GAPDH). The expression level of FLIP relative to the baseline level was calculated as 2^−ΔΔCT(FLIP), where ΔCT is (average FLIP CT-average GAPDH CT) and ΔΔCT is (average ΔCT untreated sample−average ACT treated sample.
To determine whether the reductions in FLIP protein occurred at the level of mRNA or protein, FLIP mRNA expression was measured by Quantitative RT-PCR in cells treated with 5809354 or buffer control.

As a reminder, the EC50 is the concentration giving half of the maximal effect. In the case of `CCn1c(=N)n(CC(=O)c2cc(C(C)(C)C)c(O)c(C(C)(C)C)c2)c2ccccc21` [compound 5569100, 1-(3,5-Di-tert-butyl-4-hydroxy-phenyl)-2-(3-ethyl-2-imino-2,3-dihydro-benzoimidazol-1-yl)-ethanone], in the assay with PPC-1 cells (Homo sapiens, PPC-1, PPC1 cells with anti-FAS antibody, read-out: EC50 as a FAS-sensitizer in PPC1 cells), the EC50 came to 5.6 µM. Besides, the “potency as a FAS-sensitizer relative to 5541203” value in the assay on PPC-1 cells (PPC1 cells) was “approximately 5 times”. Also, the “toxicity when added alone relative to 5541203” value in the assay on PPC-1 cells (PPC1 cells, without anti-FAS antibody) is listed as “three times more toxic”. In the assay on PPC-1 cells (PPC-1 cells, combined with CH-11), the “synergy with CH-11, median-dose combination index (CI)” value was “did not demonstrate synergy”. Moreover, in assay [1], the “sensitization to extrinsic versus intrinsic pathway stimuli” value is given as “confirming that the results are not unique to PPC-1 cells”. In addition, the “surface expression of FAS or TRAIL receptors” value (shortened to “surface expression”) with FAS or TRAIL receptors is recorded as “did not change”. Besides, the “FLIP mRNA expression” value in the assay on FLIP mRNA is recorded as “did not reduce FLIP mRNA”.

Regarding `O=C(CCCOc1ccc(Cl)cc1Cl)NO` [compound 5809354, 4-(2,4-dichlorophenoxy)-N-hydroxybutanamide], the direct toxicity result in the assay with PPC-1 cells (PPC-1 cells) is listed as “little direct toxicity”. The “sensitization to extrinsic versus intrinsic pathway stimuli” value in assay [1] is on record as “confirming that the results are not unique to PPC-1 cells”. In addition, the “surface expression” value in the assay with FAS or TRAIL receptors is on record as “did not change”. The “FLIP mRNA expression” value in the assay on FLIP mRNA is “reduced expression of FLIP mRNA; also recorded: decreased FLIP mRNA”.

As for `CC(=O)CC(=O)Nc1ccc(Cl)c(C(F)(F)F)c1` [compound 6094911, N-[4-chloro-3-(trifluoromethyl)phenyl]-3-oxobutanamide], the direct toxicity entry in the assay on PPC-1 cells (PPC-1 cells) was “little direct toxicity”. For the same molecule, the “sensitization to extrinsic versus intrinsic pathway stimuli” value in assay [1] is given as “confirming that the results are not unique to PPC-1 cells”. The “surface expression” value with FAS or TRAIL receptors is “did not change”. Also, the “FLIP mRNA expression” value with FLIP mRNA was “did not reduce FLIP mRNA”.
